In the assay the target is BRD4 (Homo sapiens (Human), UniProt O60885). As to conditions: read-out: BRD4 IC50 (μM gmean).

Molecules are shown by their SMILES.

Usually IC50 stands for the concentration at which inhibition is half-maximal. On to `COC(=O)N1c2ccc3c(nc(Cc4ccc(OC)c(F)c4)n3[C@@H]3CCC[C@@H](C(=O)O)C3)c2CC[C@@H]1C` [Example 481], for which the IC50 lay in the range of 1 to 1000 µM.

Turning to `COC(=O)N1c2ccc3c(nc(C(C)Cn4ccc(C)n4)n3C3CCCC(C(=O)O)C3)c2CC[C@@H]1C` (some centres unmarked) [Example 485], the IC50 lay in the range of 1 to 1000 µM.

As for `COC(=O)N1c2ccc3c(nc(CC(C(=O)O)c4cccc(F)c4)n3C3CCCOC3)c2CC[C@@H]1C` (some centres unmarked) [Example 490], the IC50 was in the range of 1 to 1000 µM.

`COC(=O)N1c2ccc3c(nc(C(C)Cn4cc(C(F)F)cn4)n3C3CCCC(C(=O)O)C3)c2CC[C@@H]1C` (some centres unmarked) [Example 492]: the IC50 lay within 1 to 1000 µM.

As for `COC(=O)N1c2ccc3c(nc(CC(C(=O)O)c4ccc(Cl)cc4)n3C3CCCOC3)c2CC[C@@H]1C` (some centres unmarked) [Example 495], the IC50 lay in the range of 1 to 1000 µM.

In the case of `COC(=O)N1c2ccc3c(nc(CC(C(=O)O)c4ccc(C)cc4)n3C3CCCOC3)c2CC[C@@H]1C` (some centres unmarked) [Example 497], the half-inhibitory concentration (IC50) lay within 1 to 1000 µM.

For the molecule `COC(=O)N1c2ccc3c(nc(Cc4ccc(F)c(F)c4)n3[C@@H]3CCC[C@@H](C(=O)O)C3)c2CC[C@@H]1C` [Example 502], the IC50 lay within 1 to 1000 µM.

Regarding `COC(=O)N1c2ccc3c(nc(C(C)Cn4cc(C(F)F)cn4)n3C3CCC(C(=O)O)CC3)c2CC[C@@H]1C` (some centres unmarked) [Example 504], the IC50 was 1 to 1000 µM.

Regarding `COC(=O)N1c2ccc3c(nc(C(CO)c4ccccc4)n3C3CCCC(C(=O)O)C3)c2CC[C@@H]1C` (some centres unmarked) [Example 505], the IC50 fell in the range of 1 to 1000 µM.

Turning to `COC(=O)N1c2ccc3c(nc(Cc4ccc(OC)c(Cl)c4)n3[C@H]3CC[C@H](C(=O)O)CC3)c2CC[C@@H]1C` [Example 508], the IC50 fell in the range of 1 to 1000 µM.

With `COC(=O)N1c2ccc3c(nc(CCc4ccc(F)c(F)c4)n3[C@@H]3CCC[C@@H](C(=O)O)C3)c2CC[C@@H]1C` [Example 509], the concentration for half-maximal inhibition (IC50) was in the range of 1 to 1000 µM.

As to `COC(=O)N1c2ccc3c(nc(CC(C(=O)O)c4ccc(F)cc4)n3C3CCCOC3)c2CC[C@@H]1C` (some centres unmarked) [Example 510], the IC50 lay within 1 to 1000 µM.

In the case of `COC(=O)N1c2ccc3c(nc(Cc4cc(Cl)cc(OC)c4)n3[C@@H]3CCC[C@@H](C(=O)O)C3)c2CC[C@@H]1C` [Example 512], the IC50 is 1 to 1000 µM.

With `COC(=O)N1c2ccc3c(nc(CCC4CCCC4)n3C3CCCC(C(=O)O)C3)c2CC[C@@H]1C` (some centres unmarked) [Example 514], the IC50 fell in the range of 1 to 1000 µM.

For `COC(=O)N1c2ccc3c(nc(CC(C(=O)O)c4ccccc4)n3-c3cccc(OC)c3)c2CC[C@@H]1C` (some centres unmarked) [Example 516], the IC50 lay in the range of 1 to 1000 µM.

Turning to `COC(=O)N1c2ccc3c(nc(CCc4ccccc4C(=O)O)n3C3CCCCC3)c2CC[C@@H]1C` [Example 521], the IC50 lay within 1 to 1000 µM.

For the molecule `C/C=C(\Oc1ccccc1)c1nc2c3c(ccc2n1[C@@H]1CCC[C@@H](C(=O)O)C1)N(C(=O)OC)[C@@H](C)CC3` [Example 522], the IC50 was in the range of 1 to 1000 µM.

Turning to `COC(=O)N1c2ccc3c(nc(CC(C(=O)O)c4ccc(C(F)F)cc4)n3C3CCCOC3)c2CC[C@@H]1C` (some centres unmarked) [Example 524], the IC50 is 1 to 1000 µM.

In the case of `COC(=O)N1c2ccc3c(nc(C(C)Cn4ccc(C)n4)n3C3CCC(C(=O)O)CC3)c2CC[C@@H]1C` (some centres unmarked) [Example 526], the IC50 was in the range of 1 to 1000 µM.

As for `COC(=O)N1c2ccc3c(nc(Cc4ccc(OC(F)F)cc4)n3[C@@H]3CCC[C@@H](C(=O)O)C3)c2CC[C@@H]1C` [Example 533], the IC50 lay within 1 to 1000 µM.

With `CCC(O)(c1ccccc1)c1nc2c3c(ccc2n1[C@@H]1CCC[C@@H](C(=O)O)C1)N(C(=O)OC)[C@@H](C)CC3` (some centres unmarked) [Example 534], the IC50 is 1 to 1000 µM.

`COC(=O)N1c2ccc3c(nc(CC(C(=O)O)c4ccccc4)n3-c3ccc(OC)cc3)c2CC[C@@H]1C` (some centres unmarked) [Example 536]: the IC50 is 1 to 1000 µM.

With `COC(=O)N1c2ccc3c(nc(CC(C(=O)O)c4ccc(C)cc4)n3C3CCCOC3)c2CC[C@@H]1C` (some centres unmarked) [Example 539], the IC50 was 1 to 1000 µM.

For the molecule `COC(=O)N1c2ccc3c(nc(Cc4cc(F)cc(OC)c4)n3[C@@H]3CCC[C@@H](C(=O)O)C3)c2CC[C@@H]1C` [Example 541], the IC50 lay within 1 to 1000 µM.

Regarding `COC(=O)N1c2ccc3c(nc(C(C)(O)c4ccccc4)n3C3CCCC(C(=O)O)C3)c2CC[C@@H]1C` (some centres unmarked) [Example 542], the IC50 fell in the range of 1 to 1000 µM.

Consider `COC(=O)N1c2ccc3c(nc(Cc4ccc(OC(F)F)cc4)n3[C@H]3CC[C@H](C(=O)O)CC3)c2CC[C@@H]1C` [Example 544], for which the IC50 was in the range of 1 to 1000 µM.

As to `COC(=O)N1c2ccc3c(nc(Cc4ccc(C)cc4)n3[C@@H]3CCC[C@@H](C(=O)O)C3)c2CC[C@@H]1C` [Example 549], the IC50 is 1 to 1000 µM.

Turning to `COC(=O)N1c2ccc3c(nc(CCc4ccc(C)c(F)c4)n3[C@@H]3CCC[C@@H](C(=O)O)C3)c2CC[C@@H]1C` [Example 550], the IC50 fell in the range of 1 to 1000 µM.

In the case of `COC(=O)N1c2ccc3c(nc(C(C)Cn4cc(Cl)cn4)n3C3CCC(C(=O)O)CC3)c2CC[C@@H]1C` (some centres unmarked) [Example 551], the IC50 fell in the range of 1 to 1000 µM.

With `COC(=O)N1c2ccc3c(nc(Cc4ccc(OC)c(F)c4F)n3[C@H]3CC[C@H](C(=O)O)CC3)c2CC[C@@H]1C` [Example 553], the IC50 is 1 to 1000 µM.

With `COC(=O)N1c2ccc3c(nc(Cc4ccccc4C(=O)O)n3C3CCCCC3)c2CC[C@@H]1C` [Example 555], the IC50 lay within 1 to 1000 µM.

With `COC(=O)N1c2ccc3c(nc(C(C)(C)c4ccc(OC)c(F)c4)n3[C@H]3CC[C@H](C(=O)O)CC3)c2CC[C@@H]1C` [Example 560], the IC50 is 1 to 1000 µM.

As for `COC(=O)N1c2ccc3c(nc(Cc4cc(F)ccc4OC)n3[C@H]3CC[C@H](C(=O)O)CC3)c2CC[C@@H]1C` [Example 561], the IC50 was in the range of 1 to 1000 µM.

With `COC(=O)N1c2ccc3c(nc(Cc4ccc(OC5CC5)nc4)n3[C@@H]3CCC[C@@H](C(=O)O)C3)c2CC[C@@H]1C` [Example 562], the IC50 was in the range of 1 to 1000 µM.

Turning to `COC(=O)N1c2ccc3c(nc(CC(C(=O)O)c4ccc(C)cc4)n3C3COCC(F)(F)C3)c2CC[C@@H]1C` (some centres unmarked) [Example 563], the IC50 was 1 to 1000 µM.

As for `COC(=O)N1c2ccc3c(nc(Cc4ccc(OC)cc4)n3[C@@H]3CCC[C@@H](C(=O)O)C3)c2CC[C@@H]1C` [Example 568], the IC50 lay within 1 to 1000 µM.

As to `COC(=O)N1c2ccc3c(nc(C4(Oc5ccccc5)CC4)n3[C@H]3CC[C@H](C(=O)O)CC3)c2CC[C@@H]1C` [Example 574], the IC50 is 1 to 1000 µM.

On to `COC(=O)N1c2ccc3c(nc(CC4CCCCC4)n3[C@@H]3CCC[C@@H](C(=O)O)C3)c2CC[C@@H]1C` [Example 575], for which the IC50 was in the range of 1 to 1000 µM.

For `COC(=O)N1c2ccc3c(nc(Cc4ccc5[nH]ccc5c4)n3[C@@H]3CCC[C@@H](C(=O)O)C3)c2CC[C@@H]1C` [Example 577], the IC50 lay within 1 to 1000 µM.

`COC(=O)N1c2ccc3c(nc(CC(C(=O)O)c4cccc5ccccc45)n3C3CCCOC3)c2CC[C@@H]1C` (some centres unmarked) [Example 580]: the IC50 is 1 to 1000 µM.

For the molecule `COC(=O)N1c2ccc3c(nc(Cc4ccc(N(C)C)c(F)c4)n3[C@H]3CC[C@H](C(=O)O)CC3)c2CC[C@@H]1C` [Example 581], the IC50 was 1 to 1000 µM.

As to `COC(=O)N1c2ccc3c(nc(C(CO)c4ccccc4)n3C3CCC(C(=O)O)CC3)c2CC[C@@H]1C` (some centres unmarked) [Example 582], the IC50 fell in the range of 1 to 1000 µM.

Take `COC(=O)N1c2ccc3c(nc(C(C)Cn4cccn4)n3C3CCCC(C(=O)O)C3)c2CC[C@@H]1C` (some centres unmarked) [Example 583]: the half-maximal inhibitory concentration (IC50) was 1 to 1000 µM.

Turning to `COC(=O)N1c2ccc3c(nc(CC(C(=O)O)c4ccc(C(F)F)cc4)n3C3CCCOC3)c2CC[C@@H]1C` (some centres unmarked) [Example 584], the IC50 fell in the range of 1 to 1000 µM.

(Values after patent US11292791B2 (priority 2017, dated 2022).)
